Data published in US8884013B2, “Polymorphs of Dasatinib, preparation methods and pharmaceutical compositions thereof” (Nan Jing Cavendish Bio-Engineering Technology Co., Ltd., priority 2010, dated 2014).

Assays:
[1] = High humidity test (room temperature, 75 ± 5% relative humidity); assay type: physicochemical; conditions: for Hydroscopic property: high humidity test; for Appearance / Content / Weight gain of moisture absorption: room temperature, 75 ± 5% relative humidity; for Change of appearance in high humidity test (in words) / Change of content in high humidity test (in words): summary of 10-day test
Description: (§1) The raw material of Polymorph I of Dasatinib monohydrate was distributed homogeneously in open petri dish with thickness of the raw material not more than 5 mm and put into thermostatic and humidostatic incubator at room temperature (about 25° C.) and 75±5% relative humidity. Sample was tested at the 5th and 10th day respectively and the results were contrasted with that of the Day 0. Results were listed in Tab. 4.
as §1, with “II” for “I”, “Dasatinib” for “Dasatinib monohydrate”, “9.” for “4.”

[2] = Comparative test on stability: destruction experiment, related substances by HPLC; assay type: physicochemical
Description: The methods of destruction experiment of the Polymorph I and II of this invention (hereinafter referred to as ‘Polymorph I’ and ‘Polymorph II’) contrasting with the Polymorph A of Dasatinib prepared by the method in CN200580011916.6 (hereinafter referred to as ‘916.6 Polymorph A’) and results of stability are followed:
Oxidation destruction: 50 mg of sample weighted accurately was added into measuring flask of 100 mL, and 10 mL 30% H2O2 was added. After standing at room temperature for 2 hour, the mixture was diluted with mobile phase to scale and shook to be homogeneous, and determined by HPLC.
(§2) Acid destruction: 50 mg of sample weighted accurately was added into measuring flask of 100 mL, and 10 mL 1 mol/L HCl solution was added. After standing at 40° C. for 1 hour, an equal amount of 1 mol/L NaOH solution was added for neutralization. Then the mixture was diluted with mobile phase to scale and shook to be homogeneous, and determined by HPLC.
as §2, with “Alkali” for “Acid”, “NaOH” for “HCl”, “HCl” for “NaOH”
Illumination destruction: 50 mg of sample weighted accurately was added into measuring flask of 100 mL, dissolved and diluted with mobile phase to be the solution containing 0.5 mg Dasatinib per milliliter. After standing under illumination of 4000 lx for 6 hour, the mixture was determined by HPLC.
High temperature destruction: 50 mg of sample weighted accurately was added into measuring flask of 100 mL, dissolved and diluted with mobile phase to be the solution containing 0.5 mg Dasatinib per milliliter. After standing in homothermal water bath of 60° C. for 4 hour, the mixture was cooled and then determined by HPLC.
Related Substances Determination
HPLC conditions and system applicability: octadecylsilane bonded silica as the filler; 0.05 mol/L of potassium dihydrogen phosphate (adjusted to pH 2.5 by phosphoric acid, 0.2% triethylamine)-methanol (45:55) as the mobile phase; detection wavelength was 230 nm; the number of theoretical plates should be not less than 2000, calculated according to the peak of Dasatinib. The resolution of the peak of Dasatinib from the peaks of adjacent impurities should meet requirements.
Determination method: sample was dissolved in mobile phase to be the solution containing 0.5 mg per milliliter. 20 μL of such solution was injected into liquid chromatograph, and chromatogram was recorded until the sixfold retention time of major component peak. If there were impurities peaks in the chromatogram of sample solution, total impurities and any single impurity were calculated by normalization method on the basis of peak area.

[3] = Stability in water compared with polymorph A of CN200580011916.6
[4] = 1 mol/L acid destruction (HCl, 40° C., 1 hour)
[5] = 1 mol/L alkali destruction (NaOH, 40° C., 1 hour)
[6] = high temperature destruction (60° C. water bath, 4 hour, in solution)
[7] = illumination destruction (4000 lx, 6 hour, in solution)
[8] = oxidation destruction (30% H2O2, room temperature, 2 hour)

## Cc1nc(Nc2ncc(C(=O)Nc3c(C)cccc3Cl)s2)cc(N2CCN(CCO)CC2)n1 [Polymorph I, N-(2-chloro-6-methylphenyl)-2-[[6-[4-(2-hydroxyethyl)-1-piperazinyl]-2-methyl-4-pyrimidyl]amino]-5-thiazolformamide]
[1]
  Hydroscopic property: lower
  Change of appearance in high humidity test (in words): no obvious change
  Change of content in high humidity test (in words): no obvious change
[1]; day 0
  Appearance: white powder
  Content: 99.7%
  Weight gain of moisture absorption: 3.57%
[1]; day 5
  Appearance: white powder
  Content: 99.6%
  Weight gain of moisture absorption: 3.73%
[1]; day 10
  Appearance: white powder
  Content: 99.7%
  Weight gain of moisture absorption: 3.76%
[2]; 1 mol/L acid destruction
  Impurity tR4.102: 0.02%
  Impurity tR4.987: 0.01%
  Impurity tR5.603: 0.02%
[2]; [4]
  Total impurities: 0.06%
[2]; 1 mol/L alkali destruction
  Impurity tR4.130: 0.02%
  Impurity tR5.089: 0.01%
  Impurity tR5.501: 0.02%
[2]; [5]
  Total impurities: 0.08%
[2]; before destruction
  Impurity tR4.113: 0.02%
  Impurity tR5.037: 0.01%
  Impurity tR5.535: 0.03%
  Total impurities: 0.07%
[2]; high temperature destruction
  Impurity tR3.569: 0.01%
  Impurity tR4.120: 0.02%
  Impurity tR5.088: 0.01%
  Impurity tR5.520: 0.02%
[2]; [6]
  Total impurities: 0.05%
[2]; illumination destruction
  Impurity tR2.199: 0.04%
  Impurity tR2.527: 0.06%
  Impurity tR2.911: 0.33%
  Impurity tR3.734: 0.11%
  Impurity tR4.119: 0.04%
  Impurity tR4.585: 0.08%
  Impurity tR5.089: 0.03%
  Impurity tR5.502: 0.14%
  Impurity tR5.996: 0.08%
  Impurity tR10.096: 0.66%
[2]; [7]
  Total impurities: 1.28%
[2]; oxidation destruction
  Impurity tR3.719: 0.06%
  Impurity tR4.108: 0.02%
  Impurity tR4.568: 0.04%
  Impurity tR5.090: 0.01%
  Impurity tR5.508: 0.06%
  Impurity tR6.467: 0.05%
  Impurity tR9.476: 1.058%
[2]; [8]
  Total impurities: 1.32%
[3]
  Stability in water by comparison to polymorph A of CN200580011916.6: better stability in water

## Cc1nc(Nc2ncc(C(=O)Nc3c(C)cccc3Cl)s2)cc(N2CCN(CCO)CC2)n1 [Polymorph II, N-(2-chloro-6-methylphenyl)-2-[[6-[4-(2-hydroxyethyl)-1-piperazinyl]-2-methyl-4-pyrimidyl]amino]-5-thiazolformamide]
[1]
  Hydroscopic property: lower
  Change of appearance in high humidity test (in words): no obvious change
  Change of content in high humidity test (in words): no obvious change
[1]; day 0
  Appearance: white powder
  Content: 99.8%
  Weight gain of moisture absorption: 0.57%
[1]; day 5
  Appearance: white powder
  Content: 99.7%
  Weight gain of moisture absorption: 3.63%
[1]; day 10
  Appearance: white powder
  Content: 99.8%
  Weight gain of moisture absorption: 3.72%
[2]; 1 mol/L acid destruction
  Impurity tR4.101: 0.01%
  Impurity tR4.993: 0.01%
  Impurity tR5.604: 0.02%
[2]; [4]
  Total impurities: 0.06%
[2]; 1 mol/L alkali destruction
  Impurity tR3.580: 0.01%
  Impurity tR4.131: 0.02%
  Impurity tR5.092: 0.01%
  Impurity tR5.512: 0.02%
  Impurity tR9.424: 0.01%
[2]; [5]
  Total impurities: 0.08%
[2]; before destruction
  Impurity tR4.114: 0.02%
  Impurity tR5.049: 0.01%
  Impurity tR5.473: 0.02%
  Total impurities: 0.06%
[2]; high temperature destruction
  Impurity tR3.567: 0.01%
  Impurity tR4.117: 0.01%
  Impurity tR5.085: 0.01%
  Impurity tR5.507: 0.02%
[2]; [6]
  Total impurities: 0.06%
[2]; illumination destruction
  Impurity tR2.197: 0.05%
  Impurity tR2.526: 0.05%
  Impurity tR2.910: 0.02%
  Impurity tR3.733: 0.11%
  Impurity tR4.116: 0.04%
  Impurity tR4.582: 0.07%
  Impurity tR5.084: 0.02%
  Impurity tR5.496: 0.15%
  Impurity tR5.990: 0.06%
  Impurity tR10.084: 0.78%
[2]; [7]
  Total impurities: 1.36%
[2]; oxidation destruction
  Impurity tR4.393: 0.02%
  Impurity tR4.567: 0.03%
  Impurity tR5.090: 0.01%
  Impurity tR5.510: 0.07%
  Impurity tR6.468: 0.04%
  Impurity tR9.486: 1.00%
[2]; [8]
  Total impurities: 1.19%
[3]
  Stability in water by comparison to polymorph A of CN200580011916.6: better stability in water
